System: Min6 cell
Experiment: Insulin secretion response of beta cell line to formula I compounds (insulin ELISA)
Type: cell-based
Settings: rank according to % increase versus control at most effective dose
Experimental: The secretory responses of beta cell lines to glucose were tested as described in Merglen et al. Endocrinology, (2004) 145(2):667-78.
Briefly, after incubation with compounds from formula I or control vehicle, cells were maintained for 2 hours in glucose-free culture medium. The cells were then washed twice and preincubated for 30 minutes at 37° C. in glucose-free Krebs-Ringer bicarbonate HEPES buffer (KRBH: 135 mM NaCl, 3.6 mM KCl, 5 mM NaHCO3, 0.5 mM NaH2PO4, 0.5 mM MgCl2, 1.5 mM CaCl2, and 10 mM HEPES, pH 7.4). BSA (0.1%) was added as an insulin carrier. Cells were subsequently washed with glucose-free KRBH and then incubated for 30 minutes at 37° C. in KRBH containing different concentrations of glucose. The reaction was stopped by placing the plates on ice; supernatants were collected to determine insulin secretion and cells were used for intracellular insulin content following acid-ethanol extraction. Insulin was measured by ELISA (Linco) according to the manufacturer's instructions.

Row | Compound | Insulin secretion (Min6 cell) Range 1 to 5
1 | 5-[3-(allyloxy)-2-hydroxypropyl]-9-ethyl-6,7,9,10-tetrahydro[1,3]dioxolo[4,5-i][1,5]benzodiazocin-8(5H)-one [Compound 164] | 1 (1: 90-110% of control)
2 | 5-benzyl-1-(isoxazole-5-carbonyl)-2,3,5,6-tetrahydrobenzo[b][1,5]diazocin-4(1H)-one [Compound 157] | 1 (1: 90-110% of control)
3 | 9-ethyl-5-(2-hydroxy-3-phenylpropyl)-6,7,9,10-tetrahydro[1,3]dioxolo[4,5-i][1,5]benzodiazocin-8(5H)-one [Compound 165] | 1 (1: 90-110% of control)
4 | COc1ccc2c(c1)CN(C1CC1)C(=O)CCN2 [Compound 1, 5-cyclopropyl-8-methoxy-2,3,5,6-tetrahydrobenzo[b][1,5]diazocin-4(1H)-one] | 2 (2: 110-120% of control)
5 | COc1ccc2c(c1)CN(C1CC1)C(=O)CCN2CC(O)COc1ccccc1 (stereo not shown) [Compound 2, 5-cyclopropyl-1-(2-hydroxy-3-phenoxypropyl)-8-methoxy-2,3,5,6-tetrahydrobenzo[b][1,5]diazocin-4(1H)-one] | 3 (3: 120-140% of control)
6 | COc1ccc2c(c1)CN(C1CC1)C(=O)CCN2CCc1ccc(Cl)cc1 [Compound 3, 1-(4-chlorophenethyl)-5-cyclopropyl-8-methoxy-2,3,5,6-tetrahydrobenzo[b][1,5]diazocin-4(1H)-one] | 1 (1: 90-110% of control)
7 | COc1ccc2c(c1)CN(C1CC1)C(=O)CCN2C(=O)c1cc(C)on1 [Compound 4, 5-cyclopropyl-8-methoxy-1-(5-methylisoxazole-3-carbonyl)-2,3,5,6-tetrahydrobenzo[b][1,5]diazocin-4(1H)-one] | 2 (2: 110-120% of control)
8 | COc1ccc2c(c1)CN(C1CC1)C(=O)CCN2CC(=O)c1ccc(F)cc1 [Compound 5, 5-cyclopropyl-1-(2-(4-fluorophenyl)-2-oxoethyl)-8-methoxy-2,3,5,6-tetrahydrobenzo[b][1,5]diazocin-4(1H)-one] | 3 (3: 120-140% of control)
9 | COc1ccc2c(c1)CN(C1CC1)C(=O)CCN2CC(O)c1ccc(F)cc1 (stereo not shown) [Compound 6, 5-cyclopropyl-1-(2-(4-fluorophenyl)-2-hydroxyethyl)-8-methoxy-2,3,5,6-tetrahydrobenzo[b][1,5]diazocin-4(1H)-one] | 3 (3: 120-140% of control)
10 | O=C1CCNc2ccc(Br)cc2CN1C1CC1 [Compound 7, 8-bromo-5-cyclopropyl-2,3,5,6-tetrahydrobenzo[b][1,5]diazocin-4(1H)-one] | 1 (1: 90-110% of control)
11 | O=C1CCNc2ccc(F)cc2CN1C1CC1 [Compound 8, 5-cyclopropyl-8-fluoro-2,3,5,6-tetrahydrobenzo[b][1,5]diazocin-4(1H)-one] | 3 (3: 120-140% of control)
12 | O=C1CCNc2ncccc2CN1C1CC1 [Compound 9, 5-cyclopropyl-2,3,5,6-tetrahydropyrido[2,3-b][1,5]diazocin-4(1H)-one] | 2 (2: 110-120% of control)
13 | O=C1CCNc2ccc(F)cc2CN1 [Compound 10, 8-fluoro-2,3,5,6-tetrahydrobenzo[b][1,5]diazocin-4(1H)-one] | 4 (4: 140-170% of control)
14 | COc1ccc2c(c1)CN(C1CC1)C(=O)CCN2CC(=O)c1ccccc1 [Compound 11, 5-cyclopropyl-8-methoxy-1-(2-oxo-2-phenylethyl)-2,3,5,6-tetrahydrobenzo[b][1,5]diazocin-4(1H)-one] | 1 (1: 90-110% of control)
15 | COc1ccc2c(c1)CN(C1CC1)C(=O)CCN2CC(=O)c1cc(OC)ccc1OC [Compound 12, 5-cyclopropyl-1-(2-(2,5-dimethoxyphenyl)-2-oxoethyl)-8-methoxy-2,3,5,6-tetrahydrobenzo[b][1,5]diazocin-4(1H)-one] | 1 (1: 90-110% of control)
16 | COc1ccc2c(c1)CN(C1CC1)C(=O)CCN2CC(=O)c1ccccc1OC [Compound 13, 5-cyclopropyl-8-methoxy-1-(2-(2-methoxyphenyl)-2-oxoethyl)-2,3,5,6-tetrahydrobenzo[b][1,5]diazocin-4(1H)-one] | 1 (1: 90-110% of control)

Row | Compound | Insulin secretion (Min6 cell) Range 1 to 5
17 | COc1ccc2c(c1)CN(C1CC1)C(=O)CCN2CC(=O)c1ccc(Cl)cc1 [Compound 14, 1-(2-(4-chlorophenyl)-2-oxoethyl)-5-cyclopropyl-8-methoxy-2,3,5,6-tetrahydrobenzo[b][1,5]diazocin-4(1H)-one] | 3 (3: 120-140% of control)
18 | COc1ccc2c(c1)CN(C1CC1)C(=O)CCN2CC(=O)c1ccc2c(c1)OCCO2 [Compound 15, 5-cyclopropyl-1-(2-(2,3-dihydrobenzo[b][1,4]dioxin-6-yl)-2-oxoethyl)-8-methoxy-2,3,5,6-tetrahydrobenzo[b][1,5]diazocin-4(1H)-one] | 3 (3: 120-140% of control)
19 | COc1ccc2c(c1)CN(C1CC1)C(=O)CCN2CC(=O)c1ccc(N2CCCC2)cc1 [Compound 16, 5-cyclopropyl-8-methoxy-1-(2-oxo-2-(4-(pyrrolidin-1-yl)phenyl)ethyl)-2,3,5,6-tetrahydrobenzo[b][1,5]diazocin-4(1H)-one] | 4 (4: 140-170% of control)
20 | COc1ccc2c(c1)CN(C1CC1)C(=O)CCN2CC(O)c1ccccc1 (stereo not shown) [Compound 17, 5-cyclopropyl-1-(2-hydroxy-2-phenylethyl)-8-methoxy-2,3,5,6-tetrahydrobenzo[b][1,5]diazocin-4(1H)-one] | 2 (2: 110-120% of control)
21 | COc1ccc2c(c1)CN(C1CC1)C(=O)CCN2C[C@@H](O)COCc1ccccc1 [Compound 18, (R)-1-(3-(benzyloxy)-2-hydroxypropyl)-5-cyclopropyl-8-methoxy-2,3,5,6-tetrahydrobenzo[b][1,5]diazocin-4(1H)-one] | 2 (2: 110-120% of control)
22 | O=C1CCN(C[C@@H](O)COCc2ccccc2)c2ccc(F)cc2CN1C1CC1 [Compound 19, (R)-1-(3-(benzyloxy)-2-hydroxypropyl)-5-cyclopropyl-8-fluoro-2,3,5,6-tetrahydrobenzo[b][1,5]diazocin-4(1H)-one] | 1 (1: 90-110% of control)
23 | COc1cccc(C(=O)CN2CCC(=O)N(C3CC3)Cc3cc(OC)ccc32)c1 [Compound 20, 5-cyclopropyl-8-methoxy-1-(2-(3-methoxyphenyl)-2-oxoethyl)-2,3,5,6-tetrahydrobenzo[b][1,5]diazocin-4(1H)-one] | 1 (1: 90-110% of control)
24 | COc1ccc(C(=O)CN2CCC(=O)N(C3CC3)Cc3cc(OC)ccc32)cc1 [Compound 21, 5-cyclopropyl-8-methoxy-1-(2-(4-methoxyphenyl)-2-oxoethyl)-2,3,5,6-tetrahydrobenzo[b][1,5]diazocin-4(1H)-one] | 2 (2: 110-120% of control)
25 | COc1ccc2c(c1)CN(C1CC1)C(=O)CCN2CC(=O)c1cccc(F)c1 [Compound 22, 5-cyclopropyl-1-(2-(3-fluorophenyl)-2-oxoethyl)-8-methoxy-2,3,5,6-tetrahydrobenzo[b][1,5]diazocin-4(1H)-one] | 2 (2: 110-120% of control)
26 | COc1ccc2c(c1)CN(C1CC1)C(=O)CCN2CC(=O)c1ccc(OC(F)(F)F)cc1 [Compound 23, 5-cyclopropyl-8-methoxy-1-(2-oxo-2-(4-(trifluoromethoxy)phenyl)ethyl)-2,3,5,6-tetrahydrobenzo[b][1,5]diazocin-4(1H)-one] | 1 (1: 90-110% of control)
27 | COc1ccc2c(c1)CN(C1CC1)C(=O)CCN2CC(=O)c1ccc(F)c(F)c1 [Compound 24, 5-cyclopropyl-1-(2-(3,4-difluorophenyl)-2-oxoethyl)-8-methoxy-2,3,5,6-tetrahydrobenzo[b][1,5]diazocin-4(1H)-one] | 2 (2: 110-120% of control)
28 | COc1ccc2c(c1)CN(C1CC1)C(=O)CCN2CC(O)c1cc(OC)ccc1OC (stereo not shown) [Compound 25, 5-cyclopropyl-1-(2-(2,5-dimethoxyphenyl)-2-hydroxyethyl)-8-methoxy-2,3,5,6-tetrahydrobenzo[b][1,5]diazocin-4(1H)-one] | 2 (2: 110-120% of control)
29 | COc1ccc2c(c1)CN(C1CC1)C(=O)CCN2CC(O)c1ccccc1OC (stereo not shown) [Compound 26, 5-cyclopropyl-1-(2-hydroxy-2-(2-methoxyphenyl)ethyl)-8-methoxy-2,3,5,6-tetrahydrobenzo[b][1,5]diazocin-4(1H)-one] | 2 (2: 110-120% of control)
30 | COc1ccc2c(c1)CN(C1CC1)C(=O)CCN2CC(O)c1ccc(Cl)cc1 (stereo not shown) [Compound 27, 1-(2-(4-chlorophenyl)-2-hydroxyethyl)-5-cyclopropyl-8-methoxy-2,3,5,6-tetrahydrobenzo[b][1,5]diazocin-4(1H)-one] | 4 (4: 140-170% of control)
31 | COc1ccc2c(c1)CN(C1CC1)C(=O)CCN2CC(O)c1ccc(N2CCCC2)cc1 (stereo not shown) [Compound 28, 5-cyclopropyl-1-(2-hydroxy-2-(4-(pyrrolidin-1-yl)phenyl)ethyl)-8-methoxy-2,3,5,6-tetrahydrobenzo[b][1,5]diazocin-4(1H)-one] | 3 (3: 120-140% of control)

Reference: patent US8765728B2, “[1,5]-diazocin derivatives” (MelliTech, priority 2009, dated 2014)
